Laboratory results as given in PMC11995724, “Antibiotic target discovery by integrated phenotypic and activity-based profiling of electrophilic fragments” (Cell chemical biology, 2025).

Assay: in vitro
Conditions: human, hek293t cells
`CC(Cl)C(=O)Nc1ccc(OC(F)F)c(Cl)c1` (centres unmarked) [4-F18, 2-chloro-N-[3-chloro-4-(difluoromethoxy)phenyl]propanamide] gave a viability at 48 h, 25 µM of 91.5%. For `O=C(CCl)NCc1cc([N+](=O)[O-])ccc1O` [4-A05, 2-chloro-N-[(2-hydroxy-5-nitrophenyl)methyl]acetamide], the viability at 48 h, 25 µM was 1.29%. Compound `C=CC(=O)N1Cc2ccccc2C[C@@H]1C(=O)NC1CC1` [2-G06, (3R)-N-cyclopropyl-2-(prop-2-enoyl)-1,2,3,4-tetrahydroisoquinoline-3-carboxamide] has a viability at 48 h, 25 µM of 101%. With `C=CC(=O)Nc1ccc(C(=O)N2CCCC2C(=O)NC2CC2)cc1` (centres unmarked) [2-I21, N-cyclopropyl-1-[4-(prop-2-enamido)benzoyl]pyrrolidine-2-carboxamide] the viability at 48 h, 25 µM was 175%. For `CC(Cl)C(=O)Nc1ncnc2[nH]cnc12` (centres unmarked) [6-I18, 2-chloro-N-(9H-purin-6-yl)propanamide], the viability at 48 h, 25 µM was 100%. Work on `CN(C)C(=O)C(CNC(=O)CCl)c1ccccc1` (centres unmarked) [7-J12, 3-(2-chloroacetamido)-N,N-dimethyl-2-phenylpropanamide] yielded a viability at 48 h, 25 µM of 1.26%. `Cc1cc(C=C(C#N)C(=O)Nc2ccccc2)c(C)n1C1CC1` [8-E14, 2-cyano-3-(1-cyclopropyl-2,5-dimethyl-1H-pyrrol-3-yl)-N-phenylprop-2-enamide] showed a viability at 48 h, 25 µM of 91.7%. Compound `O=C(O)C1CCN(C(=O)CCl)CC1` [6-O11, 1-(2-chloroacetyl)piperidine-4-carboxylic acid] has a viability at 48 h, 25 µM of 113%. Compound `COc1ccc(C=C(C#N)C(=O)Nc2ccccc2C)cc1` [8-P07, 2-cyano-3-(4-methoxyphenyl)-N-(2-methylphenyl)prop-2-enamide] has a viability at 48 h, 25 µM of 114%. `O=C(CCl)N(Cc1ccccc1)c1nc2c(s1)CCCC2` [4-C17, N-benzyl-2-chloro-N-(4,5,6,7-tetrahydro-1,3-benzothiazol-2-yl)acetamide] showed a viability at 48 h, 25 µM of 0.212%. With `O=C(CCl)Nc1cc(-c2ccc3c(c2)CCC3)nn1-c1ccccc1` [6-J10, 2-chloro-N-[3-(2,3-dihydro-1H-inden-5-yl)-1-phenyl-1H-pyrazol-5-yl]acetamide] the viability at 48 h, 25 µM was 0.354%. In the case of `C=CC(=O)N1CCc2nn(C(C)C)c(=O)cc2C1` [3-B22, 6-(prop-2-enoyl)-2-(propan-2-yl)-2H,3H,5H,6H,7H,8H-pyrido[4,3-c]pyridazin-3-one], the viability at 48 h, 25 µM is reported as 87.7%. With `CC(Cl)C(=O)Nc1cccc(Cl)c1` (centres unmarked) [5-H22, 2-chloro-N-(3-chlorophenyl)propanamide] the viability at 48 h, 25 µM was 78%. With `CC1=CSC(=C(C#N)C(=O)NCc2ccco2)N1c1ccccc1` [8-D13, 2-cyano-N-[(furan-2-yl)methyl]-2-(4-methyl-3-phenyl-2,3-dihydro-1,3-thiazol-2-ylidene)acetamide] the viability at 48 h, 25 µM was 114%. For `CC(Cl)C(=O)NC1(c2noc(C(F)F)n2)CCC1` (centres unmarked) [6-B15, 2-chloro-N-{1-[5-(difluoromethyl)-1,2,4-oxadiazol-3-yl]cyclobutyl}propanamide], the viability at 48 h, 25 µM was 91.8%. Compound `C=CC(=O)NC1(c2ncon2)CC1` [1-A05, N-[1-(1,2,4-oxadiazol-3-yl)cyclopropyl]prop-2-enamide] has a viability at 48 h, 25 µM of 68.7%. `C=CC(=O)N(C)Cc1cc(-c2ccccc2)[nH]n1` [1-B05, N-methyl-N-[(5-phenyl-1H-pyrazol-3-yl)methyl]prop-2-enamide] gave a viability at 48 h, 25 µM of 92.7%. In the case of `C[C@@H](NC(=O)CCl)c1ccc(F)cc1` [6-G21, 2-chloro-N-[(1R)-1-(4-fluorophenyl)ethyl]acetamide], the viability at 48 h, 25 µM is reported as 129%. In the case of `C=CC(=O)NCc1ccc(-n2cccn2)cc1` [1-M07, N-{[4-(1H-pyrazol-1-yl)phenyl]methyl}prop-2-enamide], the viability at 48 h, 25 µM is reported as 81.4%. For `CC(Cl)C(=O)NCCC1=CCCCC1` (centres unmarked) [6-E11, 2-chloro-N-[2-(cyclohex-1-en-1-yl)ethyl]propanamide], the viability at 48 h, 25 µM was 99%. For `C=CC(=O)NC(C)c1ccc(-n2nc(C)cc2C)c(F)c1` (centres unmarked) [3-P17, N-{1-[4-(3,5-dimethyl-1H-pyrazol-1-yl)-3-fluorophenyl]ethyl}prop-2-enamide], the viability at 48 h, 25 µM was 76.1%. In the case of `O=C(CCl)NCCc1c(F)cccc1F` [5-F20, 2-chloro-N-[2-(2,6-difluorophenyl)ethyl]acetamide], the viability at 48 h, 25 µM is reported as 15.5%. `C=CC(=O)Nc1cccc(C(F)(F)CF)c1` [2-O12, N-[3-(1,1,2-trifluoroethyl)phenyl]prop-2-enamide] showed a viability at 48 h, 25 µM of 98.8%. In the case of `Cc1ccc(C=C(C#N)C(=O)NC(N)=O)o1` [8-D21, {2-cyano-2-[(5-methylfuran-2-yl)methylidene]acetyl}urea], the viability at 48 h, 25 µM is reported as 101%. Work on `COc1ccc(CNC(=O)CCl)cc1OC` [5-O11, 2-chloro-N-[(3,4-dimethoxyphenyl)methyl]acetamide] yielded a viability at 48 h, 25 µM of 23.8%. `C=CC(=O)NC1CCCN(Cc2ccccc2)C1` (centres unmarked) [1-K12, N-(1-benzylpiperidin-3-yl)prop-2-enamide] showed a viability at 48 h, 25 µM of 82.8%. With `C=CC(=O)N1CC(c2cc(CO)on2)C1` [1-K20, 1-{3-[5-(hydroxymethyl)-1,2-oxazol-3-yl]azetidin-1-yl}prop-2-en-1-one] the viability at 48 h, 25 µM was 103%. `CC(c1ccc(C(F)(F)F)cc1F)N(C)C(=O)CCl` (centres unmarked) [7-P18, 2-chloro-N-{1-[2-fluoro-4-(trifluoromethyl)phenyl]ethyl}-N-methylacetamide] showed a viability at 48 h, 25 µM of 0.35%. `CC(Cl)C(=O)N1CCOCC(n2cccn2)C1` (centres unmarked) [6-H22, 2-chloro-1-[6-(1H-pyrazol-1-yl)-1,4-oxazepan-4-yl]propan-1-one] gave a viability at 48 h, 25 µM of 105%. In the case of `O=C1CCc2cc(C(=O)CCl)c(F)cc2N1` [10-O20, 6-(2-chloroacetyl)-7-fluoro-1,2,3,4-tetrahydroquinolin-2-one], the viability at 48 h, 25 µM is reported as 11.9%. `COc1ccc(O)c(C=C(C#N)C(=O)Nc2cccc3ccccc23)c1` [8-N14, 2-cyano-3-(2-hydroxy-5-methoxyphenyl)-N-(naphthalen-1-yl)prop-2-enamide] gave a viability at 48 h, 25 µM of 117%. For `C=CC(=O)Nc1ccc2c(c1)N(C)CC2` [1-G13, N-(1-methyl-2,3-dihydro-1H-indol-6-yl)prop-2-enamide], the viability at 48 h, 25 µM was 67.7%. Work on `CC(Cl)C(=O)N1CCN(C(=O)C(F)(F)F)C2(CCCCC2)C1` (centres unmarked) [7-K06, 2-chloro-1-[1-(2,2,2-trifluoroacetyl)-1,4-diazaspiro[5.5]undecan-4-yl]propan-1-one] yielded a viability at 48 h, 25 µM of 74%. In the case of `C=CC(=O)NCC1(c2ccnn2C)CC1` [2-P15, N-{[1-(1-methyl-1H-pyrazol-5-yl)cyclopropyl]methyl}prop-2-enamide], the viability at 48 h, 25 µM is reported as 78.8%. Compound `C=CC(=O)N(Cc1cccc2ccoc12)C1CCSCC1` [1-D04, N-[(1-benzofuran-7-yl)methyl]-N-(thian-4-yl)prop-2-enamide] has a viability at 48 h, 25 µM of 70.4%. Compound `CC(Cl)C(=O)N(C)Cc1ccccc1` (centres unmarked) [6-I13, N-benzyl-2-chloro-N-methylpropanamide] has a viability at 48 h, 25 µM of 105%. Compound `COc1ccc2nnc(CNC(=O)C(C)Cl)n2n1` (centres unmarked) [7-J15, 2-chloro-N-({6-methoxy-[1,2,4]triazolo[4,3-b]pyridazin-3-yl}methyl)propanamide] has a viability at 48 h, 25 µM of 90.2%. Compound `COc1cc(C=C(C#N)C(=O)Nc2ccc(C)cc2)cc(Cl)c1O` [8-P05, 3-(3-chloro-4-hydroxy-5-methoxyphenyl)-2-cyano-N-(4-methylphenyl)prop-2-enamide] has a viability at 48 h, 25 µM of 95.6%. Compound `C=CC(=O)NCC1(c2ccccc2Cl)CCCCC1` [1-A17, N-{[1-(2-chlorophenyl)cyclohexyl]methyl}prop-2-enamide] has a viability at 48 h, 25 µM of 64.2%. For `CC(Cl)C(=O)N1CCCc2ccc(N(C)C)cc2C1` (centres unmarked) [7-C15, 2-chloro-1-[8-(dimethylamino)-2,3,4,5-tetrahydro-1H-2-benzazepin-2-yl]propan-1-one], the viability at 48 h, 25 µM was 82.1%. For `Cc1c(C=C(C#N)C(=O)NCC2(c3ccccc3)CC2)cc(C#N)n1C` [8-E22, 2-cyano-3-(5-cyano-1,2-dimethyl-1H-pyrrol-3-yl)-N-[(1-phenylcyclopropyl)methyl]prop-2-enamide], the viability at 48 h, 25 µM was 79.4%. `Cc1ccc(N(CCC#N)C(=O)CCl)cc1` [4-M15, 2-chloro-N-(2-cyanoethyl)-N-(4-methylphenyl)acetamide] showed a viability at 48 h, 25 µM of 1.24%. Work on `C=CC(=O)Nc1cc(NC(=O)C2CC3CCC2CC3)ccc1F` (centres unmarked) [1-C17, N-[4-fluoro-3-(prop-2-enamido)phenyl]bicyclo[2.2.2]octane-2-carboxamide] yielded a viability at 48 h, 25 µM of 2.94%. Work on `C=CC(=O)N1CCC([C@@H](C)O)CC1` [3-E12, 1-{4-[(1R)-1-hydroxyethyl]piperidin-1-yl}prop-2-en-1-one] yielded a viability at 48 h, 25 µM of 104%. With `C=CCNC(=O)C(C#N)=Cc1ccccc1[N+](=O)[O-]` [8-E09, 2-cyano-3-(2-nitrophenyl)-N-(prop-2-en-1-yl)prop-2-enamide] the viability at 48 h, 25 µM was 109%. `CC(Cl)C(=O)NCC1CCCCN1C(=O)C(F)(F)F` (centres unmarked) [7-K13, 2-chloro-N-{[1-(2,2,2-trifluoroacetyl)piperidin-2-yl]methyl}propanamide] showed a viability at 48 h, 25 µM of 83.8%. For `Cc1ccc(N(C(=O)CCl)C2C=CS(=O)(=O)C2)cc1` (centres unmarked) [5-K13, 2-chloro-N-(1,1-dioxo-2,3-dihydro-1lambda6-thiophen-3-yl)-N-(4-methylphenyl)acetamide], the viability at 48 h, 25 µM was 0.562%. `N#CC(=Cc1ccc(OC(F)F)cc1)C(=O)Nc1ccccc1` [9-G15, 2-cyano-3-[4-(difluoromethoxy)phenyl]-N-phenylprop-2-enamide] showed a viability at 48 h, 25 µM of 139%. Compound `C=CC(=O)NCCN1CCOCC1C` (centres unmarked) [2-I05, N-[2-(3-methylmorpholin-4-yl)ethyl]prop-2-enamide] has a viability at 48 h, 25 µM of 79.2%. For `C=CCNC(=O)C(C#N)=Cc1cccc2ccccc12` [9-L10, 2-cyano-3-(naphthalen-1-yl)-N-(prop-2-en-1-yl)prop-2-enamide], the viability at 48 h, 25 µM was 96.5%. Compound `CN1C(=C(C#N)C(=O)CCl)Sc2ccccc21` [10-G08, 4-chloro-2-(3-methyl-2,3-dihydro-1,3-benzothiazol-2-ylidene)-3-oxobutanenitrile] has a viability at 48 h, 25 µM of 77.5%. Work on `Cn1cc(NC(=O)CCl)c(C(=O)NC2CCC2)n1` [5-A22, 4-(2-chloroacetamido)-N-cyclobutyl-1-methyl-1H-pyrazole-3-carboxamide] yielded a viability at 48 h, 25 µM of 2.84%. Compound `C=CC(=O)NC(Cn1cnc2ccccc21)c1ccc(F)cc1` (centres unmarked) [2-C11, N-[2-(1H-1,3-benzodiazol-1-yl)-1-(4-fluorophenyl)ethyl]prop-2-enamide] has a viability at 48 h, 25 µM of 90.5%.
